Laboratory results from paper PMC4858680, “A platinum-based hybrid drug design approach to circumvent acquired resistance to molecular targeted tyrosine kinase inhibitors” (Scientific Reports, 2016).

Legend:
TIE1 = target: T1, TIE1 (Homo sapiens, UniProt P35590); assay type: binding; settings: 10 μM
T1 construct: purchased DiscoveRx (KINOMEscan service)

EGFR(L858R) = EGFR(L858R) (Homo sapiens, UniProt P00533, L858R); settings: 10 μM
[1] = target: T2, ABL1(H396P)-phosphorylated (Homo sapiens, UniProt P00519, H396P); settings: 10 μM
[2] = Drug accumulation in organs of BALB/c mice; assay type: in vivo; settings: intravenous 12.5 mg/kg, 30 min
[3] = target: ABL1(T315I)-phosphorylated (Homo sapiens, UniProt P00519, T315I); settings: 10 μM
P-gp (MDCKII–P-gp) = P-gp (MDCKII–P-gp) (Homo sapiens, UniProt P08183); settings: 10 μM, mean of three experiments
[4] = target: ABL1(M351T)-phosphorylated (Homo sapiens, UniProt P00519, M351T); assay: biochemical; settings: read-out: Percent control
[5] = target: ABL1(F317I)-phosphorylated (Homo sapiens, UniProt P00519, F317I); assay: biochemical; settings: read-out: Percent control
[6] = target: T2, ABL1(H396P)-phosphorylated; assay: biochemical; settings: read-out: Percent control
[7] = target: ABL1(F317L)-nonphosphorylated (Homo sapiens, UniProt P00519, F317L); assay: biochemical; settings: read-out: Percent control
RET = RET (Homo sapiens, UniProt P07949); assay: biochemical; settings: read-out: Percent control
[8] = target: ABL1(E255K)-phosphorylated (Homo sapiens, UniProt P00519, E255K); assay: biochemical; settings: read-out: Percent control
RET(V804TL) = RET(V804TL) (Homo sapiens, UniProt P07949, V804L); assay: biochemical; settings: read-out: Percent control
EGFR = EGFR (Homo sapiens, UniProt P00533); assay: biochemical; settings: read-out: Percent control
DDR2 = target: T3, DDR2 (Homo sapiens, UniProt Q16832); assay: biochemical; settings: read-out: Percent control
T3 sequence (Q16832 22-855): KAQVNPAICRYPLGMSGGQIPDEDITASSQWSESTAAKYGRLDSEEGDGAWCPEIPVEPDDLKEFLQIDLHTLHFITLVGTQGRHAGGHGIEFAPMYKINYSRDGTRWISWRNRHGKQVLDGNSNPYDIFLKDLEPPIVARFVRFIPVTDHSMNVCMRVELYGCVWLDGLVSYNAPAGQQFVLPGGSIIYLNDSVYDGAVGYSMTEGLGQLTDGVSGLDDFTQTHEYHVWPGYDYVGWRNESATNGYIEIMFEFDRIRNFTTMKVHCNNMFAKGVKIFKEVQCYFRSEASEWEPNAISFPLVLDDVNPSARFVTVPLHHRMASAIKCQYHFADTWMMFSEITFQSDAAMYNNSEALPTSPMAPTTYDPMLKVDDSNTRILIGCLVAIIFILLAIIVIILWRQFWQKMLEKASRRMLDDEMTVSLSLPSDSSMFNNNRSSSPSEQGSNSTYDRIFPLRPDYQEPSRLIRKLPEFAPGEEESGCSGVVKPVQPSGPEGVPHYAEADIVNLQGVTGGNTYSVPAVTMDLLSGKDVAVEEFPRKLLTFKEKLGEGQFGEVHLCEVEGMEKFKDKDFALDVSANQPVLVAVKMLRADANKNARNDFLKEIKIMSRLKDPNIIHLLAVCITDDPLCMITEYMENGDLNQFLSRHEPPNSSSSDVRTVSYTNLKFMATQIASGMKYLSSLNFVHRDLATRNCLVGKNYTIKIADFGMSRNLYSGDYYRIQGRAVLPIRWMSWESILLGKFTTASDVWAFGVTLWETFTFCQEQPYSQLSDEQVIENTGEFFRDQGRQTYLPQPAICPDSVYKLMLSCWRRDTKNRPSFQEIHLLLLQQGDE

EPHA1 = target: T4, EPHA1 (Homo sapiens, UniProt P21709); assay: biochemical; settings: read-out: Percent control
T4 sequence (P21709 26-976): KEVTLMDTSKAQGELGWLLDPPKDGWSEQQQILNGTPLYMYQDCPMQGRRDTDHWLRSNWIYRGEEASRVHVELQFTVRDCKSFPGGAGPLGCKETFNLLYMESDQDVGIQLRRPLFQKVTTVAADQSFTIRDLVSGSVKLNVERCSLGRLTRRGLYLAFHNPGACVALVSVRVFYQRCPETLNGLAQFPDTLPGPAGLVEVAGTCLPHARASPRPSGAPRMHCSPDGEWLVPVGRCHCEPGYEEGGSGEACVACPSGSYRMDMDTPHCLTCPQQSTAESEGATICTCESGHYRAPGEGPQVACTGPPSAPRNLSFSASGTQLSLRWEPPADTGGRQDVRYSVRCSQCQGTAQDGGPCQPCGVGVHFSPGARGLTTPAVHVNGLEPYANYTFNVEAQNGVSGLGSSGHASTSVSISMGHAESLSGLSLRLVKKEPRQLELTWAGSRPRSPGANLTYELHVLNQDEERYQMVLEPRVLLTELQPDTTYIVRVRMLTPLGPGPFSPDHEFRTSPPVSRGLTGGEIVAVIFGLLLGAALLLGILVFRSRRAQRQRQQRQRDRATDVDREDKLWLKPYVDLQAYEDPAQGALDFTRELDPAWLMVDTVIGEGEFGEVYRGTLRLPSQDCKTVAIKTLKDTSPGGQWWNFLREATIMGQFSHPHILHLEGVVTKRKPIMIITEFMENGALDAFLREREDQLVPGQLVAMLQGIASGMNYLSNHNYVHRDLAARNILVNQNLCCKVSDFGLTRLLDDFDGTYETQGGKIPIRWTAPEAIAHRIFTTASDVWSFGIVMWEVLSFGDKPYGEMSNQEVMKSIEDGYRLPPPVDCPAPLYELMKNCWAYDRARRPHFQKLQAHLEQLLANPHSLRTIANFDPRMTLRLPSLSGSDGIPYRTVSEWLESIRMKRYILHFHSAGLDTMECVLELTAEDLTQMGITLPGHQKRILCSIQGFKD

SRC = SRC (Homo sapiens, UniProt P12931); assay: biochemical; settings: read-out: Percent control

P-gp (MDCKII–P-gp), sequence (P08183 whole entry): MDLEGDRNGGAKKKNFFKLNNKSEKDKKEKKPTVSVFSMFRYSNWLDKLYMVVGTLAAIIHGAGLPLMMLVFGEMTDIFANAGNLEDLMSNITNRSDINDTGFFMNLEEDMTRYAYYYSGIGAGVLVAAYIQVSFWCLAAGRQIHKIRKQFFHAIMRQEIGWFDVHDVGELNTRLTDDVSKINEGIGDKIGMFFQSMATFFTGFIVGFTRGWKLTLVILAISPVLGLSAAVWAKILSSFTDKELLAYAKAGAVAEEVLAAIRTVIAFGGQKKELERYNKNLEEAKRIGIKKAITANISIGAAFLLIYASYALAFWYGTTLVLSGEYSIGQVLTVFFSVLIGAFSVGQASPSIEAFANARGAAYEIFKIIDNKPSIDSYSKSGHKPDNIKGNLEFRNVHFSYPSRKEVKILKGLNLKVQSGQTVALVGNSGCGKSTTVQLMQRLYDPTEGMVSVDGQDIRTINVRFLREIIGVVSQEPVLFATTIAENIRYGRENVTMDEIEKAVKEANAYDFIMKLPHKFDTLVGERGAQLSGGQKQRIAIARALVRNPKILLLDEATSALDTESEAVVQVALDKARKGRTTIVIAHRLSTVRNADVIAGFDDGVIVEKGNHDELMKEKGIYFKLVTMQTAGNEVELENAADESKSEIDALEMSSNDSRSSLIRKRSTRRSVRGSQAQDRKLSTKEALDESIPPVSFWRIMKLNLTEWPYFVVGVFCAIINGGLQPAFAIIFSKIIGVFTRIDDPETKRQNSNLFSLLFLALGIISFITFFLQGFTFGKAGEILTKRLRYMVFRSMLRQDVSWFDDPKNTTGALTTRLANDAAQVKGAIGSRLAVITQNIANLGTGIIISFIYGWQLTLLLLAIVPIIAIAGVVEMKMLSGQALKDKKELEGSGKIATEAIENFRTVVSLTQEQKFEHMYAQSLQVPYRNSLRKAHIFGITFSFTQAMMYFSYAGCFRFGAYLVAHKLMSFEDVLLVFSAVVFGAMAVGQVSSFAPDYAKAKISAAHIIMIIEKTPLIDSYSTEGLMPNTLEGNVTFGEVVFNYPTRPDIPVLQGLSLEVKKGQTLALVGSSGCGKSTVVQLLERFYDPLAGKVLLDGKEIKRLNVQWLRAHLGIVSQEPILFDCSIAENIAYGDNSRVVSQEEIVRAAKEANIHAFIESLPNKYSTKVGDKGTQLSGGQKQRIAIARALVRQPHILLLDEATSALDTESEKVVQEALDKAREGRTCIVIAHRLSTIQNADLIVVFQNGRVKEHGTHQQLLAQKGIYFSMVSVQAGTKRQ
RET, sequence (P07949 29-1114): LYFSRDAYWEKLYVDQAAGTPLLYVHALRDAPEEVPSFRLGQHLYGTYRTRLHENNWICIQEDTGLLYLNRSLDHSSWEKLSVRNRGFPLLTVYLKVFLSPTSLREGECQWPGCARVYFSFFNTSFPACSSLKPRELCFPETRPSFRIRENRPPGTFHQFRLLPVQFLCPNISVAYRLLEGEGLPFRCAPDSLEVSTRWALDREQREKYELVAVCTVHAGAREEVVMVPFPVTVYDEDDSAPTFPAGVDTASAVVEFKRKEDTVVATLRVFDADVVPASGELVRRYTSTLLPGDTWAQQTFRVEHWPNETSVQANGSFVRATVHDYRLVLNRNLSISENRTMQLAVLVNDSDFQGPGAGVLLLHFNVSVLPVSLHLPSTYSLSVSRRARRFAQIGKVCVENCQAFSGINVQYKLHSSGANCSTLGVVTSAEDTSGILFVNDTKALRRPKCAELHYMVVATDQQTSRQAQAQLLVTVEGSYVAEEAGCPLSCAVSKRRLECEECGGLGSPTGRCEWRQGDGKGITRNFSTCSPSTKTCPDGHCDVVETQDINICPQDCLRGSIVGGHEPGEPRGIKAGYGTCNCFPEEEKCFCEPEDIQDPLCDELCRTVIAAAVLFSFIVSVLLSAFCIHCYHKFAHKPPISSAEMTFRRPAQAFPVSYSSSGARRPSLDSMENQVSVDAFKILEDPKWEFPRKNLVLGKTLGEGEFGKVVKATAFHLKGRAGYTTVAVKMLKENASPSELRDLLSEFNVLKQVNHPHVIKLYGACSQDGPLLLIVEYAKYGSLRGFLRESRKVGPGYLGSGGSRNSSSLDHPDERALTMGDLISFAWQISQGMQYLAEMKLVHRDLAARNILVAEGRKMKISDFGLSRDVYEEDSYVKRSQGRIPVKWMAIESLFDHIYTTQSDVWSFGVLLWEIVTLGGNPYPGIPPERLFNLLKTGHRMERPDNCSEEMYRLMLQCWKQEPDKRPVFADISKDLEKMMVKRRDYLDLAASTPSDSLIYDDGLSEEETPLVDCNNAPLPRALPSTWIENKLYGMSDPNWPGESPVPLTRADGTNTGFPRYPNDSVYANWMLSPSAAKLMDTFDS
T1 sequence (P35590 22-1138): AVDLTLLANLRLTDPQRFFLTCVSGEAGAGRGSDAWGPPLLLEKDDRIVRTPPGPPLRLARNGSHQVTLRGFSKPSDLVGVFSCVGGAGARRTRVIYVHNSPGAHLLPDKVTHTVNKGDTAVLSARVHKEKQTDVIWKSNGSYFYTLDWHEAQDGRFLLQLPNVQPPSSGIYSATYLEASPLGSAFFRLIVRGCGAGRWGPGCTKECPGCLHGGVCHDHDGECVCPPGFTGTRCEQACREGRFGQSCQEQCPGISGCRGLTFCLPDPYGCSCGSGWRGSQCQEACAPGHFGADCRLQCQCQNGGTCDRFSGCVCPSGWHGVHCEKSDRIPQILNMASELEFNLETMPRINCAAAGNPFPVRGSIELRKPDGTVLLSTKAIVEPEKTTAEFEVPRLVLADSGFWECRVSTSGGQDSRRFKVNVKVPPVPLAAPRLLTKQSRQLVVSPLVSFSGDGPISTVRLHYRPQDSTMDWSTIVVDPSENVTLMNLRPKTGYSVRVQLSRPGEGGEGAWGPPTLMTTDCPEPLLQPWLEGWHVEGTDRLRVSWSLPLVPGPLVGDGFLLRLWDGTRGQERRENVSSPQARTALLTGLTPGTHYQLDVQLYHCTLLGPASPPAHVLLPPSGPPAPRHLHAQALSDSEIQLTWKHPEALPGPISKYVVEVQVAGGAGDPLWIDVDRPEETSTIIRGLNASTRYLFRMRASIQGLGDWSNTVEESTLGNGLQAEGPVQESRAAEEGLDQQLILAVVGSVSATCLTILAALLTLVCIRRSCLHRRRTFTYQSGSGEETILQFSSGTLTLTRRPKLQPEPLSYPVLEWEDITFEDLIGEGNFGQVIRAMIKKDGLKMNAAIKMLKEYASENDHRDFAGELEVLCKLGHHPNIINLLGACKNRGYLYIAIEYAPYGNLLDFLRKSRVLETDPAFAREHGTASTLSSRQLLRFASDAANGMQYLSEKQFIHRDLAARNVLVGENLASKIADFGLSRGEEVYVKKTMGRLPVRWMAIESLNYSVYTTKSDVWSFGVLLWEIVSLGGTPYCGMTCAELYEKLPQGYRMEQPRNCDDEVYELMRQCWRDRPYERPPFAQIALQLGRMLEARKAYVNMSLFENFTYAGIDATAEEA
EGFR(L858R), sequence (P00533 25-1210 L858R): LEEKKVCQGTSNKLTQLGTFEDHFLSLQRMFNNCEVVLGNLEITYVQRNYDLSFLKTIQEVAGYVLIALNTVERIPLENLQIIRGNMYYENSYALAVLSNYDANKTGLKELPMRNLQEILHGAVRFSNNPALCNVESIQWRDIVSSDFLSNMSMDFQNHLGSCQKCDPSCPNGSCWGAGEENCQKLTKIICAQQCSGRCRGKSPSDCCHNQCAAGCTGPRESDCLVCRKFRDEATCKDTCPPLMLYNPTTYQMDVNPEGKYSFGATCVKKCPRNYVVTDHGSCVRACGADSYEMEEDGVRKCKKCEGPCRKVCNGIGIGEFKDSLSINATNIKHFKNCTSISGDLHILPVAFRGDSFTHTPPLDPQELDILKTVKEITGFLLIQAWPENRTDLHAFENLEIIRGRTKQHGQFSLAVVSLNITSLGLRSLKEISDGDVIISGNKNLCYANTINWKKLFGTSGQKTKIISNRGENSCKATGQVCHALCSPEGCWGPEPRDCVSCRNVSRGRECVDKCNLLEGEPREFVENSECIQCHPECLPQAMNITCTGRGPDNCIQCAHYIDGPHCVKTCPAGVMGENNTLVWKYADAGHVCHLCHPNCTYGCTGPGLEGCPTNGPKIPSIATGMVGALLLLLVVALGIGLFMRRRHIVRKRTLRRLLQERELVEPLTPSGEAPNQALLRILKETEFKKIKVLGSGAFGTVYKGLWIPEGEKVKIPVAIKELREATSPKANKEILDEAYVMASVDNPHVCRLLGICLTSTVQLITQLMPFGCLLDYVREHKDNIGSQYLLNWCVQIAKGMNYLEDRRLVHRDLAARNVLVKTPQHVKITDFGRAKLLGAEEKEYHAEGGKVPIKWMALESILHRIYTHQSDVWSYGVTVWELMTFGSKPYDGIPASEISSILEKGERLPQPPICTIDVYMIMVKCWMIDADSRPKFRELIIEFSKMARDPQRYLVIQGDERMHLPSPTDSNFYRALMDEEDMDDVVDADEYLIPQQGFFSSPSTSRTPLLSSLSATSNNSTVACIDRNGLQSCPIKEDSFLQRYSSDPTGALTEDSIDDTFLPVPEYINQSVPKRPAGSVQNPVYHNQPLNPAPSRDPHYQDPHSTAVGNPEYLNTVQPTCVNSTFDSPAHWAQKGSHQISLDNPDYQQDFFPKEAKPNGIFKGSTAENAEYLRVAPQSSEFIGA
RET(V804TL), sequence (P07949 29-1114 V804L): as the sequence (P07949 29-1114) above, with V776L counted along it

Cc1ccc(NC(=O)c2ccc(CN3CCN(C)CC3)cc2)cc1Nc1nccc(-c2cccnc2)[n+]1[Pt-2]1([Cl])[NH2+]C2CCCCC2[NH2+]1 (stereo not shown) [1b, oxaliplatin-imatinib]
Percent control (TIE1): 100% | Percent control (EGFR(L858R)): 81%

C#Cc1cccc(Nc2c3cc(OCCOC)c(OCCOC)cc3nc[n+]2[Pt@SP2-2]([NH3+])([NH3+])[Cl])c1 [2a, cisplatin-erlotinib]
Percent control [1]: 13% | brain accumulation, times higher than that of cisplatin [2]: 7 times | brain accumulation, times higher than that of erlotinib [2]: > 3 times | Percent control [3]: 30% | A to B transport (apparent permeability) (P-gp (MDCKII–P-gp)): 3.32 × 10^−6 | B to A transport (apparent permeability) (P-gp (MDCKII–P-gp)): 2.82 × 10^−6

C#Cc1cccc(Nc2ncnc3cc(OCCOC)c(OCCOC)cc23)c1 [Erlotinib]
remaining activity at 10 µM [4]: 0.7% | remaining activity at 10 µM [5]: 9.9% | remaining activity at 10 µM [6]: 0.6% | remaining activity at 10 µM [7]: 6% | remaining activity at 10 µM (RET): 11.5% | remaining activity at 10 µM [8]: 0.6% | remaining activity at 10 µM (RET(V804TL)): 100%

Cc1ccc(NC(=O)c2ccc(CN3CCN(C)CC3)cc2)cc1Nc1nccc(-c2cccnc2)n1 [Imatinib, reference compound]
remaining activity at 10 µM (EGFR): 100%

COc1cc2c(Nc3ccc(Br)cc3F)ncnc2cc1OCC1CCN(C)CC1 [Vandetanib, reference compound]
remaining activity at 10 µM (DDR2): 3.1% | remaining activity at 10 µM (EPHA1): 2.2% | remaining activity at 10 µM (SRC): 0.7%
